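Test compounds were applied to cells in 96-well plates for 48 hours at 5 doses. TGI marks complete inhibition of growth.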 Square brackets hold non-standard residues; d marks the D form. Peptide text beside a SMILES is read from it. Phe(4-NO2) = N[CH](Cc1ccc([N+](=O)[O-])cc1)C(=O)O
How the values were obtained:
Test in all cases: growth of human tumour cells (NCI), 48 h
NCI-H226 lung = system: NCI-H226 lung
LOX IMVI melanoma = system: LOX IMVI melanoma
HOP-62 NSCLC = system: HOP-62 NSCLC
MOLT-4 leukemia = system: MOLT-4 leukemia
KM12 colon = system: KM12 colon
NCI-H23 lung = system: NCI-H23 lung
TK-10 renal = system: TK-10 renal
SNB-19 CNS = system: SNB-19 CNS
SK-MEL-5 melanoma = system: SK-MEL-5 melanoma
ACHN renal = system: ACHN renal
IGROV1 ovarian = system: IGROV1 ovarian
BT-549 breast = system: BT-549 breast

| SMILES | TGI (NCI-H226 lung) [µM] | TGI (LOX IMVI melanoma) [µM] | TGI (HOP-62 NSCLC) [µM] | TGI (MOLT-4 leukemia) [µM] | TGI (KM12 colon) [µM] | TGI (NCI-H23 lung) [µM] | TGI (TK-10 renal) [µM] | TGI (SNB-19 CNS) [µM] | TGI (SK-MEL-5 melanoma) [µM] | TGI (ACHN renal) [µM] | TGI (IGROV1 ovarian) [µM] | TGI (BT-549 breast) [µM] |
| --- | --- | --- | --- | --- | --- | --- | --- | --- | --- | --- | --- | --- |
| COc1ccc2c(c1)C=C(C(C)(C)C)NS2(=O)=O | > 100 | > 100 | > 100 | > 100 | > 100 | > 100 | > 100 | > 100 | > 100 | > 100 | > 100 |  |
| N#Cc1c2ccc([N+](=O)[O-])cc2c(=O)n2c1sc1ccccc12 | 47.5 | > 100 |  |  | > 100 | 43 | 55.8 | 36.9 | > 100 | > 100 |  | > 100 |
| Cc1ccc(NC(=S)N=Nc2c(O)[nH]c3ccccc23)cc1 | > 100 | > 100 | > 100 | > 100 | > 100 | > 100 | > 100 | > 100 | > 100 | > 100 | > 100 |  |
| COc1ccc(C(=O)N(Cc2cccnc2)C(=S)N(Cc2cccnc2)C(=O)c2ccc(OC)cc2)cc1 | > 100 | > 100 | > 100 | > 100 | > 100 | > 100 | > 100 | > 100 | > 100 | > 100 |  | > 100 |
| COC(=O)CCC(NC(=O)C(CCC(=O)OC)NC(=O)C(CCC(=O)OC)NC(=O)C(CCC(=O)OC)NC(=O)C(CCC(=O)OC)NC(=O)C(Cc1ccc([N+](=O)[O-])cc1)NC(=O)C(CCC(=O)OC)NC(=O)C(CCC(=O)OC)NC(=O)C(CCC(=O)OC)NC(=O)C(CCC(=O)OC)NC(=O)C(CCC(=O)OC)NC(C)=O)C(N)=O (centres undefined) (Ac-E(OMe)E(OMe)E(OMe)E(OMe)E(OMe)[Phe(4-NO2)]E(OMe)E(OMe)E(OMe)E(OMe)E(OMe)-NH2; configuration not given here) |  | > 100 |  | > 100 | > 100 | > 100 | > 100 | > 100 | > 100 | > 100 | > 100 |  |
| CCOc1ncnc2ccc(Cl)c(I)c12 |  | > 100 | > 100 |  | > 100 | > 100 | > 100 | > 100 | > 100 | > 100 | > 100 |  |
| C=CCN(c1cc(OC)c2c(c1[N+](=O)[O-])C(C)(SC)C(=O)N2)S(C)(=O)=O (centres undefined) | > 100 | > 100 |  |  | > 100 | > 100 | > 100 | > 100 | > 100 | > 100 | > 100 | > 100 |
| C[C@H](CO)C1=CC(C#C[Si](C)(C)C)N(C(=O)Oc2ccccc2)c2ccccc21 (some centres undefined) | 34.6 | 33.5 | 19.4 | 44 | 21.8 | 15.1 | 31.4 | 29.8 | 26.6 | 26.8 | 29.9 |  |
| CC(C)(C)OC(=O)N1CCC(NC(=O)NC2CCN(C(=O)OC(C)(C)C)CC2)CC1 |  | > 100 | > 100 |  | > 100 | > 100 | > 100 | > 100 |  | > 100 | > 100 | 12.6 |
| CCOC(OCC)[C@H](N)[C@@H](O)[C@@H](O)[C@H]1COC(C)(C)O1 | > 100 | > 100 | > 100 | > 100 | > 100 | > 100 | > 100 | > 100 | > 100 | > 100 | > 100 |  |
| CC(C)C1=CC23CCC4C(C)(C(=O)O)CCCC4(C)C2CC1C1C(=O)N(c2cccc(N4C(=O)C5C6CC7C8(C)CCCC(C)(C(=O)O)C8CCC7(C=C6C(C)C)C5C4=O)c2)C(=O)C13 (centres undefined) | 32.5 |  | 25.2 | 40.1 | 9.7 | 12.2 | 30.4 |  | 28.6 | 26.1 |  |  |
| NS(=O)(=O)c1nnc(NC(=O)/C=C/C(=O)O)s1 |  | > 100 | > 100 | > 100 | > 100 | > 100 | > 100 | > 100 | > 100 | > 100 |  | > 100 |
| NS(=O)(=O)c1ccc(N2C(=O)C(=O)N(c3ccccc3)C2=S)cc1 | > 100 | > 100 | > 100 | > 100 | > 100 | > 100 | > 100 | > 100 | > 100 | > 100 | > 100 |  |
| C(#C[C@@]12CCC[C@@H]1N(Cc1ccccc1)CO2)c1ccc2c(c1)OCO2 | > 100 |  | > 100 | > 100 | > 100 | > 100 |  | > 100 |  | > 100 |  | > 100 |
| CC(C)(C)C(=O)CC(=O)C(F)(F)C(F)(F)C(F)(F)F.[Ag] | 60.2 | 14.5 | 50.9 | 44.8 | 50.8 | 33.1 | 32.1 | 43.9 | 21.3 | 28.7 | 26.5 |  |
| CN(C)c1c(C2CC(O)C(CO)O2)c(=O)c1=O (centres undefined) | > 100 | > 100 | > 100 | > 100 | > 100 |  | > 100 | > 100 |  | > 100 | > 100 | > 100 |
| CCOC1=NC(C(F)(F)F)(C(F)(F)F)N=C(N2CCCCC2)O1 | > 100 | > 100 | > 100 | > 100 | > 100 | > 100 | > 100 | > 100 | > 100 | > 100 | > 100 |  |
| CC(c1ccccc1)C(O)S(=O)(=O)O (centres undefined) | > 100 | > 100 |  | > 100 | > 100 | > 100 | > 100 | > 100 |  | > 100 | > 100 |  |
| CC1OC(OC2C[C@](O)(C(=O)CBr)Cc3c(O)c4c(c(O)c32)C(=O)c2ccccc2C4=O)C(F)C(O)C1O (some centres undefined) | 36.4 | 35.8 | 66 |  | > 84.1 | 36.2 | > 87.4 | > 70.5 | 24.4 | 7.08 | 60.9 | > 100 |
| CCN(CCCl)c1cc(CN(C)C)cc(NC(=O)c2ccc(C(=O)Nc3ccccc3)cc2)c1 | 5.92 | 0.634 | 3.21 | 1.78 | 2.8 | 1.27 | 7.57 | 8.85 |  |  | 0.448 |  |
